Measurements: patent publication US11427594B2, “Non brain penetrant A2A inhibitors and methods for use in the treatment of cancers” (iTeos Belgium SA, priority 2018, dated 2022)
Where two headings read alike, the source gives them in different places.

Tests used:
A2A receptor = target: T1, A2A receptor (Homo sapiens, UniProt P29274); experiment: Inhibition of cAMP production in HEK cells (LANCE Ultra cAMP, TR-FRET); format: cell-based; conditions: HEK-293 cells with stable transfection of A2A receptor
T1 construct: host or cells: HEK-293
Experimental: When the A2A receptor is activated, is induces the production of cAMP. The present assay thus aims at showing that cAMP production is inhibited in HEK cells in response to their exposure to the compounds of the invention. HEK-293 cells with a stable transfection of A2A receptor were bought from PerkinElmer® (#ES-011-C). Cells were cultured in EMEM medium (Lonza, #BE12-611F) supplemented with 10% FBS (Lonza, #DE14-801F) and 200 μg/mL of G418 (Tocris, #4131) at 37° C. and 5% CO2. Fresh media without the selection marker was added on the day immediately before the experiment to stop selection pressure. cAMP inhibition and antagonist IC50 determination were accessed using the LANCE® Ultra cAMP Kit from PerkinElmer® (#TRF0262) on white half area 96 well plates (PerkinElmer®, #6005560). The assays were conducted in two different stimulation buffers: • a) normal with 1×HBSS (Gibco®, #141750-95), 5 mM HEPES (Lonza, #BE17-737E), 0.1% BSA and 25 μM Rolipram and • b) HSA with 1×HBSS (Gibco®, #141750-95), 5 mM HEPES (Lonza, #BE17-737E), 2% Human Serum Albumin (Sigma-Aldrich®—A1653), 30 μM of EHNA (Tocris—#1261) and 100 μM Rolipram. Stimulation buffer b) mimics the human situation by increasing the amount of albumin present in the assay. Compounds of the present invention were diluted 100× in either of the buffers depending on the assay performed. A total of 1000 cells per well were pre-incubated for 10 minutes with the compounds of the present invention before adding the corresponded EC80 of A2A agonist (3 nM of NECA in normal buffer) or 5 μM of Adenosine (in HAS buffer) for a total reaction time of 30 minutes. The total volume of the reaction was 20 μl (10 μl of cells, 5 μl of antagonist and 5 μl of agonist). The reaction was finalized by adding 10 μl of 4×EU-cAMP tracer working solution and 10 μl of 4× ULight-anti-cAMP working solution. The TR-FRET signal was measured after 1 hour using a Spectramax Paradigm (Molecular Devices).

[1] = Permeability and efflux in Caco-2 cells; format: in vitro ADME; conditions: human, Caco-2 monolayer, bidirectional transport, pH 7.4
Experimental: The transport buffer (TB, pH 7.4) used in the study is Hank's Buffered Saline Solution (HBSS, Gibco, Cat #14025-076) with 10 mM HEPES at pH 7.4. Fetal bovine serum (FBS) (Corning, Cat #Corning-35-076-CV, or other vendors), Minimum Essential Media (MEM) (Gibco, Cat #41500-034) as well as its supplements are purchased from Invitrogen (Carlsbad, Calif., USA). Caco-2 cell line (Cat #HTB-37) is purchased from the ATCC (Rockville, Md., USA). The organic solvents used in the study are purchased from Sigma Aldrich (St. Louis, Mo., USA). For reference compounds (fenoterol, propranolol and digoxin) and test compounds, 0.4 mM intermediate solutions are prepared by diluting 10 mM or other appropriate concentrations of DMSO stock solutions with DMSO. 2 μM dosing solutions for reference compounds and test compounds are prepared by spiking the appropriate volume of intermediate solution to TB with and without 1 μM Zosuquidar. The final concentration of DMSO is no more than 1% (v/v). Caco-2 cells are grown in MEM supplemented with 2 mM L-glutamine, 10% FBS, 100 U/mL penicillin-G and 100 μg/mL streptomycin. The cells are incubated at 37° C., 5% CO2 and relatively saturated humidity. After reaching 80-90% confluency, the cells are gently detached with 0.05% trypsin-EDTA solution. Cells at passage 30-50 are seeded on the 96-well BD insert system (Cat #359274) at the density of 1×10^5 cells/cm2 and cultured for 21-28 days with medium changed every 4-5 days. TB and dosing solutions were pre-warmed to 37° C. before transport assay. The cell monolayer was washed twice with HBSS containing 10 mM HEPES. For A-B (apical to basolateral) directional transport assay, 75 μL dosing solution is added to the apical well. Fill each basolateral well with 250 μL TB. For B-A (basolateral to apical) directional transport assay, 250 μL of dosing solution is added to the basolateral well after filling each apical well with 75 μL TB. Test compound(s) and digoxin are tested at 2 μM in the presence or absence of 1 μM zosuquidar bidirectionally in duplicate. Atenolol and propranolol are tested at 2 μM in the absence of zosuquidar in A to B direction in duplicate. The plates are incubated for 120 minutes at 37° C. with 5% C02 and saturated humidity. The time zero samples are generated by mixing 50 μL initial dosing solution of test compound or reference compound with 100 μL TB and 250 μL quench solution (acetonitrile (ACN) or other appropriate solvent with internal standard(s), based on the bioanalytical method development). At 120 minutes, 150 μL of solution is collected from each A-B receiver well followed by addition of 250 μL quench solution to get A-B receiver sample. And for other samples (A-B donor, B-A donor and receiver), 50 μL of solution is collected from each corresponding well followed by addition of 250 μL quench solution and 100 μL TB. All samples are vortex-mixed and centrifuged at 3220 g for 20 minutes. Subsequently, supernatant is diluted with ultra pure water for LC-MS/MS analysis. The concentrations of test compound in all samples are determined by LC-MS/MS and expressed as peak area ratio of analyte to internal standard. The concentration of samples is expressed using the peak area ratio of Analyte to Internal Standard (Analyte/IS). The apparent permeability coefficient (Papp) is calculated using the following equation: Papp=VR/(Area*Time)*(CR/C0) wherein VR is the solution volume in the receiver chamber (0.075 mL on the apical side, 0.25 mL on the basolateral side); Area is the surface area for the transport, i.e. 0.0804 cm2 for the area of the monolayer; Time is incubation time, expressed in seconds, 2 h=2×3600 s; C0 is the initial concentration in the donor chamber; CR is the final concentrations in receiver chamber. The efflux ratio is calculated using the following equation: Efflux ratio=[…]) where Papp (A-B) and Papp (B-A) are the Papp values of compound in Apical to Basolateral and Basolateral to Apical directional transport, respectively.

[2] = HSA stimulation buffer, 5 μM Adenosine as agonist, 2.0% HSA, read-out: IC50 (nM) (5 μM Adenosine as agonist, 2.0% HSA)
[3] = normal stimulation buffer, 3 nM NECA as agonist, 0.1% BSA, read-out: IC50 (nM) (3 nM NECA as agonist, 0.1% BSA)

T1 sequence (P29274 whole entry): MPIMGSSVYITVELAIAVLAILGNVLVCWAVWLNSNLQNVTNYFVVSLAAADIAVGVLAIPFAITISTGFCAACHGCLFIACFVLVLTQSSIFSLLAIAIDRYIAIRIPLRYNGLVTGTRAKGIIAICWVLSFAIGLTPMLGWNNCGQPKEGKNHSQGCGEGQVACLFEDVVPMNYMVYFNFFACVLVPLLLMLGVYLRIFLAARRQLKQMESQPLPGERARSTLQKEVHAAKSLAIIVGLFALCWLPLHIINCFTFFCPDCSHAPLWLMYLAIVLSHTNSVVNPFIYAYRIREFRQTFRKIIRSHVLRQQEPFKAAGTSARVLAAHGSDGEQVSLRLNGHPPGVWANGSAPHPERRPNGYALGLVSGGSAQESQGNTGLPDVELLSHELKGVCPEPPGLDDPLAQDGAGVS

SMILES	IC50 (A2A receptor; [2])	IC50 (A2A receptor; [3])	efflux ratio at 120 min, 2 μM [1]
CN(CCN1CCN(c2cc(OCC[S@+](C)[O-])c(F)cc2F)CC1)c1nc(N)n2nc(-c3ccco3)nc2n1 [Compound 1, (S)—N5-(2-(4-(2,4-difluoro-5-(2-(methylsulfinyl)ethoxy)phenyl)piperazin-1-yl)ethyl)-2-(furan-2-yl)-N5-methyl-[1,2,4]triazolo[1,5-a][1,3,5]triazine-5,7-diamine]	33 nM	0.4 nM	–
CN(CCN1CCN(c2cc(OCC[S@@+](C)[O-])c(F)cc2F)CC1)c1nc(N)n2nc(-c3ccco3)nc2n1 [Compound 2, (R)—N5-(2-(4-(2,4-difluoro-5-(2-(methylsulfinyl)ethoxy)phenyl)piperazin-1-yl)ethyl)-2-(furan-2-yl)-N5-methyl-[1,2,4]triazolo[1,5-a][1,3,5]triazine-5,7-diamine]	28 nM	0.6 nM	–
CNC(=O)c1cc(N2CCN(CCn3c(=O)n(C)c4c3nc(N)n3nc(-c5ccco5)nc43)CC2)c(F)cc1F [Compound 3, 5-(4-(2-(5-amino-8-(furan-2-yl)-1-methyl-2-oxo-1H-[1,2,4]triazolo[5,1-i]purin-3(2H)-yl)ethyl)piperazin-1-yl)-2,4-difluoro-N-methylbenzamide]	176 nM	0.1 nM	53
CNC(=O)c1cc(N2CCN(CCn3ncc4c3nc(N)n3nc(-c5ccco5)nc43)CC2)c(F)cc1F [Compound 4, 5-(4-(2-(5-amino-2-(furan-2-yl)-7H-pyrazolo[4,3-e][1,2,4]triazolo[1,5-c]pyrimidin-7-yl)ethyl)piperazin-1-yl)-2,4-difluoro-N-methylbenzamide]	150 nM	0.3 nM	8
CN(CCN1CCN(c2cc(OCCS(C)(=O)=O)c(F)cc2F)CC1)c1nc(N)n2nc(-c3ccco3)nc2n1 [Compound 5, N5-(2-(4-(2,4-difluoro-5-(2-(methylsulfonyl)ethoxy)phenyl)piperazin-1-yl)ethyl)-2-(furan-2-yl)-N5-methyl-[1,2,4]triazolo[1,5-a][1,3,5]triazine-5,7-diamine]	41 nM	0.6 nM	> 340
CS(=O)(=O)CCOc1cc(N2CCN(CCNc3nc(N)n4nc(-c5ccco5)nc4n3)CC2)c(F)cc1F [Compound 6, N5-(2-(4-(2,4-difluoro-5-(2-(methylsulfonyl)ethoxy)phenyl)piperazin-1-yl)ethyl)-2-(furan-2-yl)-[1,2,4]triazolo[1,5-a][1,3,5]triazine-5,7-diamine]	63 nM	0.9 nM	–
Cn1c(=O)n(CCN2CCN(c3cc(OCC[S@+](C)[O-])c(F)cc3F)CC2)c2nc(N)n3nc(-c4ccco4)nc3c21 [Compound 7, (S)-5-amino-3-(2-(4-(2,4-difluoro-5-(2-(methylsulfinyl)ethoxy)phenyl)piperazin-1-yl)ethyl)-8-(furan-2-yl)-1-methyl-1H-[1,2,4]triazolo[5,1-i]purin-2-one]	64 nM	0.3 nM	> 500
Cn1c(=O)n(CCN2CCN(c3cc(OCC[S@@+](C)[O-])c(F)cc3F)CC2)c2nc(N)n3nc(-c4ccco4)nc3c21 [Compound 8, (R)-5-amino-3-(2-(4-(2,4-difluoro-5-(2-(methylsulfinyl)ethoxy)-phenyl)piperazin-1-yl)ethyl)-8-(furan-2-yl)-1-methyl-1H-[1,2,4]triazolo[5,1-i]purin-2-one]	70 nM	0.3 nM	> 400
Cn1c(=O)n(CCN2CCN(c3cc(OCCS(C)(=O)=O)c(F)cc3F)CC2)c2nc(N)n3nc(-c4ccco4)nc3c21 [Compound 9, 5-amino-3-(2-(4-(2,4-difluoro-5-(2-(methylsulfonyl)ethoxy)phenyl)piperazin-1-yl)ethyl)-8-(furan-2-yl)-1-methyl-1H-[1,2,4]triazolo[5,1-i]purin-2(3H)-one]	104 nM	0.5 nM	> 300
C[S@+]([O-])CCOc1cc(N2CCN(CCNc3nc(N)n4nc(-c5ccco5)nc4n3)CC2)c(F)cc1F [Compound 10, (S)—N5-(2-(4-(2,4-difluoro-5-(2-(methylsulfinyl)ethoxy)phenyl)piperazin-1-yl)ethyl)-2-(furan-2-yl)-[1,2,4]triazolo[1,5-a][1,3,5]triazine-5,7-diamine]	25 nM	0.2 nM	> 900
Nc1nc(NCCN2CCN(c3cc(N4CC[S+]([O-])CC4)c(F)cc3F)CC2)nc2nc(-c3ccco3)nn12 [Compound 15, 4-(5-(4-(2-((7-amino-2-(furan-2-yl)-[1,2,4]triazolo[1,5-a][1,3,5]triazin-5-yl)amino)ethyl)piperazin-1-yl)-2,4-difluorophenyl)thiomorpholine 1-oxide]	81 nM	1.7 nM	–
C[S@@+]([O-])c1cc(N2CCN(CCNc3nc(N)n4nc(-c5ccco5)nc4n3)CC2)c(F)cc1F [Compound 16, (R)—N5-(2-(4-(2,4-difluoro-5-(methylsulfinyl)phenyl)piperazin-1-yl)ethyl)-2-(furan-2-yl)-[1,2,4]triazolo[1,5-a][1,3,5]triazine-5,7-diamine]	73 nM	7.4 nM	–
C[S@+]([O-])c1cc(N2CCN(CCNc3nc(N)n4nc(-c5ccco5)nc4n3)CC2)c(F)cc1F [Compound 17, (S)—N5-(2-(4-(2,4-difluoro-5-(methylsulfinyl)phenyl)piperazin-1-yl)ethyl)-2-(furan-2-yl)-[1,2,4]triazolo[1,5-a][1,3,5]triazine-5,7-diamine]	201 nM	1.8 nM	–
